Reference: the supplement of paper PMC8882468
± gives the standard deviation of the averaged measurements.

Assays:
Test in all cases: CTG-3D luminescence at 96 h relative to day-0 seeding control (ratio to day 0); higher = more growth / less cytotoxicity; PDxO 3D drug screen (set 2), 96 h, CTG-3D normalised to day-0 seeding control.
HCI-023 = system: HCI-023 (organoid from a triple-negative breast cancer xenograft)
HCI-011.E2 = system: HCI-011.E2 (organoid from an ER-positive breast cancer xenograft)
HCI-019 = system: HCI-019 (organoid from a triple-negative breast cancer xenograft)
HCI-002 = system: HCI-002 (organoid from a triple-negative breast cancer xenograft)
HCI-017.E2 = system: HCI-017.E2 (organoid from an ER-positive breast cancer xenograft)
HCI-012 = system: HCI-012 (organoid from a breast cancer xenograft)

O=C(c1cc(Cc2n[nH]c(=O)c3ccccc23)ccc1F)N1CCN(C(=O)C2CC2)CC1 [olaparib]
CTG-3D luminescence at 96 h
Conditions	12.5 pM	0.00025 µM	0.005 µM	0.1 µM	1 µM	10 µM	100 µM	625 fM
HCI-002, days in culture: 127	2.26	2.88	2.92	2.97	2.45	2.59	2.23	2.54
HCI-002, days in culture: 155	4.7	4.7	5.6	6.16	4.47	2.8	2.34	4.33
HCI-002, days in culture: 168	3.4	3.26	4.03	3.35	3.14	2.04	1.7	3.55
HCI-011.E2, days in culture: 74	2.53	2.44	2.19	2.22	1.57	0.94	0.157	2.66
HCI-012, days in culture: 214	2.61	3.14	2.09	1.89	1.68	0.943	0.704	2.64
HCI-012, days in culture: 243	1.73	2.04	1.86	2.25	1.49	1.74	1.2	2.06
HCI-012, days in culture: 256	2.25	1.86	2.13	3.12	2.12	1.26	1.08	2.1
HCI-012, days in culture: 284	1.75	1.95	1.42	2.17	1.42	1.42	0.15	3
HCI-017.E2, days in culture: 85	2.36	1.92	1.89	2.06	1.56	0.709	0.204	2.56
HCI-019, days in culture: 173	2.78	1.9	2.2	2.31	0.982	0.711	1.32	1.96
HCI-019, days in culture: 194	0.984	1.95	2.68	1.65	1.48	0.946	0.789	2.41
HCI-019, days in culture: 215	2	2.06	1.04	1.59	1.06	0.36	0.254	1.33
HCI-023, days in culture: 223	1.7	2.3	1.79	1.65	1.36	1.31	0.879	1.75
HCI-023, days in culture: 238	1.45	1.31	1.45	1.53	1.9	1.41	0.856	1.72
HCI-023, days in culture: 252	2.12	1.81	1.55	2	1.78	1.86	1.59	2.3

CTG-3D luminescence at 96 h
Conditions	12.5 pM	0.00025 µM	0.005 µM	0.1 µM	1 µM	10 µM	100 µM	625 fM
HCI-011.E2	1.58 ± 0.066	1.55 ± 0.11	1.41 ± 0.24	1.95 ± 0.21	1.6 ± 0.13	1.14 ± 0.1	0.266 ± 0.099	2.1 ± 0.43
HCI-017.E2	2.27 ± 0.03	2.61 ± 0.52	2.34 ± 0.22	2.76 ± 0.57	2.06 ± 0.25	1.12 ± 0.051	0.259 ± 0.025	2.59 ± 0.23

CC(=O)c1c(C)c2cnc(Nc3ccc(N4CCNCC4)cn3)nc2n(C2CCCC2)c1=O [palbociclib]
CTG-3D luminescence at 96 h
Conditions	12.5 pM	0.00025 µM	0.005 µM	0.1 µM	1 µM	10 µM	100 µM	625 fM
HCI-002, days in culture: 127	2.7	3.03	2.72	3.1	2.26	2.38	2.33	2.77
HCI-002, days in culture: 155	4.87	4.92	5.53	4.73	3.5	3.42	2.36	5.36
HCI-002, days in culture: 168	3.15	3.17	3.77	2.95	3.02	2.23	1.63	4.09
HCI-011.E2, days in culture: 74	2.34	2.11	2.43	2.43	1.74	2.51	1.52	2.09
HCI-012, days in culture: 214	2.51	1.31	1.58	1.96	2.63	2.66	0.494	1.78
HCI-012, days in culture: 243	2.23	2.46	1.58	2.71	2.27	2.37	1.29	3.76
HCI-012, days in culture: 256	1.88	2.23	1.63	3.14	2.13	1.8	0.605	2.46
HCI-012, days in culture: 284	1.65	2.5	2.04	2.56	1.9	2.78	0.731	4.06
HCI-017.E2, days in culture: 85	2.34	1.47	2.15	2.41	1.66	1.8	1.58	1.96
HCI-019, days in culture: 173	2.68	2.28	1.24	2.55	2.78	1.39	1.9	2.01
HCI-019, days in culture: 194	3.12	1.02	3.29	2.76	2.08	1.97	1.02	1.43
HCI-019, days in culture: 215	1.93	1.31	2.06	1.48	1.83	1.35	1.38	1.73
HCI-023, days in culture: 223	2.23	2.46	1.71	1.94	1.21	1.61	1.04	1.86
HCI-023, days in culture: 238	1.53	1.27	1.67	1.48	1.87	1.53	0.908	1.59
HCI-023, days in culture: 252	2.28	1.93	1.66	1.79	1.79	1.92	1.35	1.91

CTG-3D luminescence at 96 h
Conditions	12.5 pM	0.00025 µM	0.005 µM	0.1 µM	1 µM	10 µM	100 µM	625 fM
HCI-011.E2	1.41 ± 0.057	1.8 ± 0.18	1.29 ± 0.083	1.53 ± 0.05	1.49 ± 0.048	1.92 ± 0.39	1.44 ± 0.12	1.86 ± 0.15
HCI-017.E2	2 ± 0.16	2.45 ± 0.34	2.1 ± 0.028	2.37 ± 0.17	1.98 ± 0.21	2.346 ± 0.0064	1.25 ± 0.19	2.23 ± 0.092

CO[C@H]1C[C@@H]2CC[C@@H](C)[C@@](O)(O2)C(=O)C(=O)N2CCCC[C@H]2C(=O)O[C@H]([C@H](C)C[C@@H]2CC[C@@H](O)[C@H](OC)C2)CC(=O)[C@H](C)/C=C(\C)[C@@H](O)[C@@H](OC)C(=O)[C@H](C)C[C@H](C)/C=C/C=C/C=C/1C [rapamycin]
CTG-3D luminescence at 96 h
Conditions	12.5 pM	0.00025 µM	0.005 µM	0.1 µM	1 µM	10 µM	100 µM	625 fM
HCI-002, days in culture: 127	1.89	1.99	1.94	2.24	1.85	2.01	0.0264	2.17
HCI-002, days in culture: 155	3.33	3.32	3.3	3.82	2.76	2.89	0.0206	3.05
HCI-002, days in culture: 168	2.98	2.48	2.66	2.27	2.64	2.56	0.0148	3.57
HCI-011.E2, days in culture: 74	2.21	1.44	1.16	0.949	0.784	0.995	0.0116	2.1
HCI-012, days in culture: 214	2.2	1.93	1.66	1.12	1.43	1.48	0.0123	1.33
HCI-012, days in culture: 243	1.69	1.66	1.47	1.74	1.31	1.75	0.0176	1.93
HCI-012, days in culture: 256	2.19	1.95	1.54	1.81	1.91	1.19	0.0101	2.38
HCI-012, days in culture: 284	1.84	2.05	1.19	1.44	1.29	1.76	0.0121	3.62
HCI-017.E2, days in culture: 85	2.2	1.67	1.47	1.51	1.34	1.31	0.0123	2.57
HCI-019, days in culture: 173	1.07	0.905	0.844	1.93	1.36	1.43	0.0117	1.08
HCI-019, days in culture: 194	1.66	1.04	1.1	0.588	1.28	1.54	0.0107	2.69
HCI-019, days in culture: 215	1.12	0.5	0.486	1.15	0.713	0.457	0.00468	1.43
HCI-023, days in culture: 223	1.62	1.63	1.09	1.99	0.95	1.49	0.0136	2.02
HCI-023, days in culture: 238	1.36	1.16	0.919	1.42	1.46	1.5	0.0105	1.26
HCI-023, days in culture: 252	1.76	1.4	1.31	1.72	1.32	1.8	0.00661	1.58

CTG-3D luminescence at 96 h
Conditions	12.5 pM	0.00025 µM	0.005 µM	0.1 µM	1 µM	10 µM	100 µM	625 fM
HCI-011.E2	0.71 ± 0.12	0.7694 ± 0.0021	0.724 ± 0.05	0.909 ± 0.034	0.688 ± 0.042	1.05 ± 0.065	0.0136 ± 0.00019	1.05 ± 0.26
HCI-017.E2	1.41 ± 0.26	1.88 ± 0.34	1.61 ± 0.12	1.58 ± 0.15	1.56 ± 0.074	1.63 ± 0.34	0.0217 ± 0.0042	1.583 ± 0.013

CC(C)n1nc(-c2ccc3oc(N)nc3c2)c2c(N)ncnc21 [sapanisertib]
CTG-3D luminescence at 96 h
Conditions	12.5 pM	0.00025 µM	0.005 µM	0.1 µM	1 µM	10 µM	100 µM	625 fM
HCI-002, days in culture: 127	2.42	2.94	2.62	1.76	0.875	0.742	0.27	3.04
HCI-002, days in culture: 155	5.75	5.31	5.49	2.38	1.32	0.875	0.163	4.67
HCI-002, days in culture: 168	3.37	3.2	3.78	1.61	0.882	0.787	0.155	4.04
HCI-011.E2, days in culture: 74	2.73	2.43	1.98	0.488	0.142	0.167	0.138	2.6
HCI-012, days in culture: 214	3	1.84	1.05	1.27	0.635	0.331	0.0967	2.11
HCI-012, days in culture: 243	1.95	2.36	1.77	1.16	0.476	0.522	0.156	3.05
HCI-012, days in culture: 256	2.05	2.28	2.44	1.31	0.395	0.305	0.171	2.12
HCI-012, days in culture: 284	1.65	2.83	1.59	1.13	0.451	0.248	0.147	3.7
HCI-017.E2, days in culture: 85	2.14	1.78	2.08	0.908	0.515	0.249	0.14	2.37
HCI-019, days in culture: 173	2.61	0.967	1.48	1.01	0.438	0.352	0.0514	1.71
HCI-019, days in culture: 194	1.66	1.19	1.63	0.737	0.441	0.49	0.0673	3.01
HCI-019, days in culture: 215	1.78	1.21	1.14	0.664	0.531	0.192	0.0431	1.84
HCI-023, days in culture: 223	1.99	3.08	1.41	0.945	0.479	0.703	0.169	2.08
HCI-023, days in culture: 238	1.38	1.49	1.44	0.777	0.723	0.606	0.2	1.64
HCI-023, days in culture: 252	2.43	1.86	1.79	1.19	0.654	0.535	0.388	1.93

CTG-3D luminescence at 96 h
Conditions	12.5 pM	0.00025 µM	0.005 µM	0.1 µM	1 µM	10 µM	100 µM	625 fM
HCI-011.E2	1.55 ± 0.24	1.65 ± 0.35	0.974 ± 0.011	0.413 ± 0.1	0.187 ± 0.05	0.228 ± 0.036	0.277 ± 0.05	1.96 ± 0.3
HCI-017.E2	2.17 ± 0.34	2.44 ± 0.51	1.79 ± 0.052	0.877 ± 0.12	0.558 ± 0.031	0.399 ± 0.099	0.125 ± 0.061	2.58 ± 0.079
